Tested on: hematopoietic progenitors (MPP^FL+, CLP, DN1, DN2, DN3)
Assay: OP9:OP9DL1 stromal co-cultures, myeloid versus lymphoid progeny by flow cytometry
Format: cell-based, mouse
Settings: 50 nM; for myeloid versus lymphoid progeny: DN3 progenitors; for myeloid versus lymphoid progeny / percentage of myeloid progeny versus lymphoid progeny: 6 days after plating on OP9:OP9DL1 stroma; for percentage of myeloid progeny versus lymphoid progeny: MPP^FL+, CLP, DN1 and DN2 progenitors
Source text: FIG. 6 is a series of graphical representations of FACS plots and quantitation of myeloid versus lymphoid progeny. FIG. 6a are representative FACS plots of progeny from hematopoietic progenitors 6 days after plating on OP9:OP9DL1 stroma in the presence or absence of 5-aza-2′deoxycytidine. […] FIG. 6b is a histogram depicting quantitation of myeloid versus lymphoid progeny. The percentage of myeloid versus lymphoid progeny, as defined above, were quantified for each well from the experiment in a. Each bar represents the average of triplicate wells, and the error bars are the standard deviations between wells.
OP9:OP9DL1 stromal co-cultures. 3000 OP9 and 3000 OP9DL1 cells were plated in each well of 96 well plates in MEMa+10% FBS. The next day, 50 double-sorted progenitors were plated per well in the presence of 5 ng/ml IL-7 and F1t3L, and 10 ng/ml IL-3, IL-6, M-CSF, GM-CSF, and G-CSF (PeproTech). 50 nM 5-aza-2′-deoxycytide (Sigma) or vehicle (50% acetic acid) was added to the wells as indicated. At day 3, half of the media plus cytokines and drugs was replaced. At day 6, progeny from each well were stained and analyzed by flow cytometry to identify lymphoid versus myeloid progeny.
To test the hypothesis that reduced methylation preferentially promotes myeloid as opposed to lymphoid differentiation, an in vitro assay system that promotes both myeloid and lymphoid development was used (as in Engel et al., Epigenetics. 2009;4:98-99 and Bell et al., Nature. 2008;452:764-767). […] It evident that inhibiting DNA methylation promotes myeloid versus lymphoid specification, providing a mechanism for the myeloid skewing observed in Dnmt1 hypomorphs.

[1] = listed as 5-aza-2′deoxycytidine

Nc1ncn([C@H]2C[C@H](O)[C@@H](CO)O2)c(=O)n1 [5-aza-2′-deoxycytidine]
myeloid skewing, compared between progenitor populations (DN1 cells, 6 days): most pronounced in DN1 cells | myeloid versus lymphoid progeny: remained lymphoid committed | myeloid versus lymphoid progeny [1]: continued to generate an exclusively lymphoid readout | cell expansion (DN3 wells, 6 days): inhibited cell expansion | percentage of myeloid progeny versus lymphoid progeny: increased at the expense of lymphoid progeny | percentage of myeloid progeny versus lymphoid progeny [1]: trended towards generating more myeloid progeny
